Reference: patent US11066414B2, “Cot modulators and methods of use thereof” (Gilead Sciences, Inc., priority 2015, dated 2021)
Like-named read-outs stand apart in the source and are kept apart here.

Tests used:
[1] = system: TNFα; assay: Cot Monocyte TNFα Cell Based Assay
[2] = target: Human Cot (Homo sapiens (Human), UniProt P41279); assay: High Throughput Cot Biochemical Assay
[3] = read-out: EC50 TNF, LPS-stimulated human monocytes, TNFα
[4] = read-out: IC50 HTRF, Cot HTRF (TR-FRET) biochemical assay
[5] = Homo sapiens, Monocyte, read-out: EC50 TNF, LPS-stimulated human monocytes, TNFα
[6] = IC50 HTRF, Cot HTRF (TR-FRET) biochemical assay
[7] = read-out: EC50 TNF, LPS-stimulated human monocytes, TNFα TR-FRET
[8] = read-out: IC50 HTRF, Cot HTRF (TR-FRET KinEASE) biochemical assay, 400 μM ATP
[9] = Homo sapiens, Monocyte, read-out: EC50 TNF, LPS-stimulated human monocytes, TNFα TR-FRET
[10] = IC50 HTRF, Cot HTRF (TR-FRET KinEASE) biochemical assay, 400 μM ATP

Chain of Human Cot (P41279 30-397): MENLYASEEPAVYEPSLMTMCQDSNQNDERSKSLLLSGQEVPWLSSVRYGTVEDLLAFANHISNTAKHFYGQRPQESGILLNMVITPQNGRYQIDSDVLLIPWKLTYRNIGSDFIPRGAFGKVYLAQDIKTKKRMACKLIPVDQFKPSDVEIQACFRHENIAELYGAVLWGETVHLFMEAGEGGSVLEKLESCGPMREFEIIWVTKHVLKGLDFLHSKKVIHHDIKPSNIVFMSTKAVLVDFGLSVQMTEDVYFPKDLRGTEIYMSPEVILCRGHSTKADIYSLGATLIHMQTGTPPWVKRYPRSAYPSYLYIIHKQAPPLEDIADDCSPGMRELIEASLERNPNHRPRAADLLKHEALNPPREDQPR

Compound | EC50 [1, 5] [nM] | IC50 [2, 6] [nM] | other results
CC(C)n1cc([C@@H](Nc2cc(Cl)c3ncc(C#N)c(N[C@@H](CCO)c4ccccc4)c3c2)c2cccnc2)nn1 [Example 184, 8-chloro-4-(((S)-3-hydroxy-1-phenylpropyl)amino)-6-(((S)-(1-isopropyl-1H-1,2,3-triazol-4-yl)(pyridin-3-l)methyl)amino)-quinoline-3-carbonitrile] | – | – | EC50 [1, 3]: 387 nM; IC50 [2, 4]: 8 nM
Cn1cnc2c([C@H](Nc3cc(Cl)c4ncc(C#N)c(NCC(C)(C)C)c4c3)c3cn(C45CC(C4)C5)nn3)cccc2c1=O [Example 728, (S)-6-(((1-(bicyclo[1.1.1]pentan-1-yl)-1H-1,2,3-triazol-4-yl)(3-methyl-4-oxo-3,4-dihydroquinazolin-8-yl)methyl)amino)-8-chloro-4-(neopentylamino)quinoline-3-carbonitrile] | 154 | 7 | –
CCc1ncccc1[C@H](Nc1cc(C#N)c2ncc(C#N)c(NCC(C)(C)C)c2c1)c1cn(C2(C(F)(F)F)CC2)nn1 [Example 602, (S)-6-(((2-ethylpyridin-3-yl)(1-(1-(trifluoro-methyl)cyclopropyl)-1H-1,2,3-triazol-4-yl)methyl)amino)-4-(neopentylamino)-quinoline-3,8-dicarbonitrile] | 69 | 3 | –
COc1nccc2c([C@H](Nc3cc(Cl)c4ncc(C#N)c(NCC(C)(C)C(F)(F)F)c4c3)c3cn(C4(C)CC4)nn3)cccc12 [Example 927, (S)-8-chloro-6-(((1-methoxylsoquinolin-5-yl)(1-(1-methylcyclopropyl)-1H-1,2,3-triazol-4-yl)methyl)amino)-4-((3,3,3-trifluoro-2,2-dimethylpropyl)amino)quinoline-3-carbonitrile] | – | – | EC50 [1, 7]: 124 nM; IC50 [2, 8]: 6 nM
Cc1nc(F)ccc1[C@H](Nc1cc(C#N)c2ncc(C#N)c(NCC(C)(C)C)c2c1)c1cn(C(C)(C)C(F)(F)F)nn1 [Example 591, (S)-6-(((6-fluoro-2-methylpyridin-3-yl)(1-(1,1,1-trifluoro-2-methylpropan-2-yl)-1H-1,2,3-triazol-4-yl)methyl)amino)-4-(neopentylamino)quinoline-3,8-dicarbonitrile] | 106 | 5 | –
N#Cc1cnc2c(Cl)cc(N[C@@H](C3=CCOCC3)c3cn(C4COC4)nn3)cc2c1Nc1ccc(Cl)c(Cl)c1F [Example 210, (S)-8-chloro-4-((3,4-dichloro-2-fluorophenyl)amino)-6-(((3,6-dihydro-2H-pyran-4-yl)(1-(oxetan-3-yl)-1H-1,2,3-triazol-4-yl)methyl)amino)quinoline-3-carbonitrile] | 424 | 10 | –
CC(C)(C)CNc1c(C#N)cnc2c(Cl)cc(N[C@H](c3cn(C4(C(F)(F)F)CC4)nn3)c3cncc4ccccc34)cc12 [Example 628, (S)-8-chloro-6-((isoquinolin-4-yl(1-(1-(trifluoromethyl)cyclopropyl)-1H-1,2,3-triazol-4-yl)methyl)amino)-4-(neopentylamino)quinoline-3-carbonitrile] | 1000 | 450 | –
Cc1cncc([C@H](Nc2cc(Cl)c3ncc(C#N)c(Nc4ccc(F)c(Cl)c4)c3c2)c2cn(C(C)C)nn2)c1 [Example 228, (S)-8-chloro-4-((3-chloro-4-fluorophenyl)amino)-6-(((1-isopropyl-1H-1,2,3-triazol-4-yl)(5-methylpyridin-3-yl)methyl)amino)quinoline-3-carbonitrile] | 2310 | 18 | –
Cc1nc(F)ccc1[C@H](Nc1cc(Cl)c2ncc(C#N)c(NCC(C)(C)C(F)(F)F)c2c1)c1nnn(C23CC(C2)C3)c1F [Example 956, (S)-6-(((1-(bicyclo[1.1.1]pentan-1-yl)-5-fluoro-1H-1,2,3-triazol-4-yl)(6-fluoro-2-methylpyridin-3-yl)methyl)amino)-8-chloro-4-((3,3,3-trifluoro-2,2-dimethylpropyl)amino)quinoline-3-carbonitrile] | – | – | EC50 [1, 9]: 44 nM; IC50 [2, 10]: 7 nM
CCN1Cc2cccc([C@H](Nc3cc(Cl)c4ncc(C#N)c(Nc5ccc(F)c(Cl)c5)c4c3)c3c[nH]nn3)c2C1 [Example 54, (S)-8-chloro-4-((3-chloro-4-fluorophenyl)amino)-6-(((2-ethylisoindolin-4-yl)(1H-1,2,3-triazol-4-yl)methyl)amino)quinoline-3-carbonitrile] | 652 | 11 | –
COc1cc([C@H](Nc2cc(Cl)c3ncc(C#N)c(NCC(C)(C)C)c3c2)c2cn(C3(C(F)(F)F)CC3)nn2)ccn1 [Example 941, (S)-8-chloro-6-(((2-methoxypyridin-4-yl)(1-(1-(trifluoromethyl)cyclopropyl)-1H-1,2,3-triazol-4-yl)methyl)amino)-4-(neopentylamino)quinoline-3-carbonitrile] | – | – | EC50 [1, 9]: 804 nM; IC50 [2, 10]: 64 nM
CC(C)(CNc1c(C#N)cnc2c(Cl)cc(N[C@H](c3cn(C4(C5CC5)CC4)nn3)c3cccc4ncccc34)cc12)C(F)(F)F [Example 798, (S)-6-(((1-([1,1′-bi(cyclopropan)]-1-yl)-1H-1,2,3-triazol-4-yl)(quinolin-5-yl)methyl)amino)-8-chloro-4-((3,3,3-trifluoro-2,2-dimethylpropyl)amino)quinoline-3-carbonitrile] | 90 | 7 | –
Cn1ccc2c([C@H](Nc3cc(C#N)c4ncc(C#N)c(NCC(C)(C)C)c4c3)c3cn(C4(C(F)F)CC4)nn3)cccc2c1=O [Example 871] | – | – | EC50 [1, 7]: 32 nM; IC50 [2, 8]: 1 nM
Cn1ccc2c([C@H](Nc3cc(Cl)c4ncc(C#N)c(NCC(C)(C)C)c4c3)c3cn(C4(C(F)F)CC4)nn3)ccnc21 [Example 767, (S)-8-chloro-6-(((1-(1-(difluoromethyl)cyclopropyl)-1H-1,2,3-triazol-4-yl)(1-methyl-1H-pyrrolo[2,3-b]pyridin-4-yl)methyl)amino)-4-(neopentylamino)quinoline-3-carbonitrile] | 209 | 18 | –
CC(C)(C)CNc1c(C#N)cnc2c(Cl)cc(N[C@@H](c3ccc4cccnc4c3)c3cn(C4(C(F)(F)F)CC4)nn3)cc12 [Example 698, (S)-8-chloro-4-(neopentylamino)-6-((quinolin-7-yl(1-(1-(trifluoromethyl)cyclopropyl)-1H-1,2,3-triazol-4-yl)methyl)amino)quinoline-3-carbonitrile] | 684 | 27 | –
Cc1nc(F)ccc1[C@H](Nc1cc(Cl)c2ncc(C#N)c(NCC(C)(C)C)c2c1)c1cn(CC(F)F)nn1 [Example 532, (S)-8-chloro-6-(((1-(2,2-difluoroethyl)-1H-1,2,3-triazol-4-yl)(6-fluoro-2-methyl-pyridin-3-yl)methyl)amino)-4-(neopentyl-amino)quinoline-3-carbonitrile] | 78 | 3 | –
Cc1nc(F)ccc1[C@H](Nc1cc(Cl)c2ncc(C#N)c(NCC(C)(C)C(F)(F)F)c2c1)c1nnn([C@@H](C)CF)c1F [Example 955, 8-chloro-6-(((S)-(5-fluoro-1-((S)-1-fluoropropan-2-yl)-1H-1,2,3-triazol-4-yl)(6-fluoro-2-methylpyridin-3-yl)methyl)amino)-4-((3,3,3-trifluoro-2,2-dimethylpropyl)amino)quinoline-3-carbonitrile] | – | – | EC50 [1, 9]: 50 nM; IC50 [2, 10]: 6 nM
Cc1nc(F)ccc1[C@H](Nc1cc(Cl)c2ncc(C#N)c(NCC(C)(C)C)c2c1)c1cn(C2(C3CC3)CC2)nn1 [Example 547] | – | – | EC50 [1, 3]: 33 nM; IC50 [2, 4]: 2 nM
Cc1nc(F)ccc1[C@H](Nc1cc(C#N)c2ncc(C#N)c(NCC(C)(C)CCl)c2c1)c1cn(C2(C(F)(F)F)CC2)nn1 [Example 637, (S)-4-((3-chloro-2,2-dimethylpropyl)amino)-6-(((6-fluoro-2-methylpyridin-3-yl)(1-(1-(trifluoromethyl)-cyclopropyl)-1H-1,2,3-triazol-4-yl)methyl)amino)-quinoline-3,8-dicarbonitrile] | 85 | 3 | –
CCN1CCC(n2cc([C@@H](Nc3cc(Cl)c4ncc(C#N)c(Nc5ccc(F)c(Cl)c5)c4c3)c3cscc3Cl)nn2)CC1 [Example 371, (S)-8-chloro-4-((3-chloro-4-fluorophenyl)amino)-6-(((4-chlorothiophen-3-yl)(1-(1-ethylpiperidin-4-yl)-1H-1,2,3-triazol-4-yl)methyl)-amino)quinoline-3-carbonitrile] | 173 | 2 | –
COc1c([C@@H](Nc2cc(Cl)c3ncc(C#N)c(NCC(C)(C)C)c3c2)c2ccc(F)nc2C)nnn1C1CC1 [Example 967, (S)-8-chloro-6-(((1-cyclopropyl-5-methoxy-1H-1,2,3-triazol-4-yl)(6-fluoro-2-methylpyridin-3-yl)methyl)amino)-4-(neopentylamino)quinoline-3-carbonitrile] | – | – | EC50 [1, 9]: 94 nM; IC50 [2, 10]: 2 nM
COCCOCCn1cc([C@@H](Nc2cc(Cl)c3ncc(C#N)c(Nc4ccc(F)c(Cl)c4)c3c2)c2cccnc2)nn1 [Example 340, (S)-8-chloro-4-((3-chloro-4-fluorophenyl)amino)-6-(((1-(2-(2-methoxyethoxy)ethyl)-1H-1,2,3-triazol-4-yl)(pyridin-3-yl)methyl)-amino)quinoline-3-carbonitrile] | 328 | 8 | –
CC(C)(C)N1CCC(n2cc([C@@H](Nc3cc(Cl)c4ncc(C#N)c(NC5CCCCCC5)c4c3)c3cccnc3)nn2)CC1 [Example 288, (S)-6-(((1-(1-(tert-butyl)piperidin-4-yl)-1H-1,2,3-triazol-4-yl)(pyridin-3-yl)methyl)amino)-8-chloro-4-(cycloheptylamino)quinoline-3-carbonitrile] | 1060 | 26 | –
